Experimental data reported in patent publication US20080305534A1, “Novel Glycerol Dehydrogenase, Gene Therefor, and Method of Utilizing the Same” (priority 2004, published 2008).

B1: RCG: glycerol dehydrogenase derived from Cellulomonas sp. strain KNK0102, amino acid sequence SEQ ID NO: 1 (protein, listed as Cellulomonas sp.)
chain: MSEVPVRTLISPLRYVQARGALTRLGEFVRPIGTKPLLVADDVVWGIVQDTVAVSFQEQDLPRHRTGFGTYATAAEVDRLAREIDELGADVIVGIGGGSTIDAVKAAGHLRGIRWVSVPTVASTDAPCSALSVIYTEDGAFEEYRFFPHNPDLVLVDTGLVANAPVKFLVAGVGDALATWIEARAVAEANASTMAGGLPLVTGTALAQLSWDILWENALPAIDAVKNHLVTPAVEKVVEANTLLSGLGFESGGLAAAHAIHNGLTAAPQTHGLTHGQKVNIGSVTQLVLEGAPTEEIEEFVRFTTRVGLPNTLTEIGLTADDVHDLTRVAEAATAEGETIHAMPFPVRVPELVDALRSIEGFSRRVRAEAGLPEPVKHTAH

tested on: RCG; experiment: Substrate specificity of RCG (oxidation activity with NAD+); type: biochemical, Cellulomonas sp. strain KNK0102; settings: pH 8
Protocol: Oxidation activity was determined by adding 2 mM of coenzyme NAD^+, 10 mM of a compound shown in Table 2, and the enzyme solution to a 100 mM phosphate buffer (pH 8.0) to react at 30° C. for 3 min. followed by the measurement of an increase in absorbance at the wavelength of […]. In Table 2, relative activities are summarized, wherein the activity for glycerol is 100.

Q: With `OCCCCO` [1,4-butanediol] as the molecule, how does the Relative activity read?
A: 1%

Q: Which Relative activity does the source give for `OCCO` [ethylene glycol] here?
A: 8%

same assay, conditions: substrate 10 mM, 2 mM NAD+, 100 mM phosphate buffer pH 8.0, 30° C., 3 min; activity for glycerol is 100

Q: Which Relative activity does the source give for 1-amino-2-propanol here?
A: 12%

Q: With 2-butanol as the molecule, how does the Relative activity read?
A: 0%

Q: For `OCCC(O)CO` (stereo not shown) [1,2,4-butanetriol], which Relative activity is on record?
A: 21%

Q: With `CCC(O)CO` (stereo not shown) [1,2-butanediol] as the molecule, how does the Relative activity read?
A: 129%

Q: Which Relative activity does the source give for `CCCCC(O)CO` (stereo not shown) [1,2-hexanediol] here?
A: 26%

Q: With `CCCC(O)CO` (stereo not shown) [1,2-pentanediol] as the molecule, how does the Relative activity read?
A: 153%

Q: Which Relative activity does the source give for `CC(O)CO` (stereo not shown) [1,2-propanediol] here?
A: 142%

Q: Which Relative activity does the source give for `CC(O)CCO` (stereo not shown) [1,3-butanediol] here?
A: 3%

Q: With `OC(CCl)CCl` [1,3-dichloro-2-propanol] as the molecule, how does the Relative activity read?
A: 0%

Q: With `OCCCO` [1,3-propanediol] as the molecule, how does the Relative activity read?
A: 1%

Q: With `CC(O)CCCO` (stereo not shown) [1,4-pentanediol] as the molecule, how does the Relative activity read?
A: 0%

Q: For `CC(O)C(C)O` (stereo not shown) [2,3-butanediol], which Relative activity is on record?
A: 64%

Q: Which Relative activity does the source give for `OCC(O)CBr` (stereo not shown) [3-bromo-1,2-propanediol] here?
A: 58%

Q: With `OCC(O)CCl` (stereo not shown) [3-chloro-1,2-propanediol] as the molecule, how does the Relative activity read?
A: 63%

Q: For `OCC(O)CS` (stereo not shown) [3-mercapto-1,2-propanediol], which Relative activity is on record?
A: 129%

Q: With `COCC(O)CO` (stereo not shown) [3-methoxy-1,2-propanediol] as the molecule, how does the Relative activity read?
A: 39%

Q: For `CSCC(O)CO` (stereo not shown) [3-methylthio-1,2-propanediol], which Relative activity is on record?
A: 120%

Q: Which Relative activity does the source give for `OCC(O)COc1ccccc1` (stereo not shown) [3-phenoxy-1,2-propanediol] here?
A: 9%

Q: Which Relative activity does the source give for `CCO` [ethanol] here?
A: 0%

Q: For `OCC(O)CO` [glycerol], which Relative activity is on record?
A: 100%

Q: With `CC(C)O` [isopropanol] as the molecule, how does the Relative activity read?
A: 0%

Q: Which Relative activity does the source give for `CO` [methanol] here?
A: 0%

Q: With `CCCO` [propanol] as the molecule, how does the Relative activity read?
A: 0%

Q: For butanol, which Relative activity is on record?
A: 0%

tested on: not listed separately; experiment: Action of RCG: stereoselective reduction of 1-chloro-3-hydroxyacetone; type: biochemical; settings: reduction of 1-chloro-3-hydroxyacetone using NADH as a coenzyme
Protocol: Furthermore, optical purity of the resulting 3-chloro-1,2-propanediol was determined by high performance liquid chromatography after tosylation.

Q: Which “optical purity of (S)-3-chloro-1,2-propanediol formed” value does the source give for B1 here?
A: 99.3 % e.e.

tested on: not listed separately; experiment: Optimum pH of RCG for reduction (activity to reduce dihydroxyacetone); type: biochemical; settings: 10 mM dihydroxyacetone, 0.167 mM NADH, 30° C., pH 4 to pH 9
Protocol: In order to study the optimum pH of RCG for reduction, the activity to reduce dihydroxyacetone at pH 4 to pH 9 was determined. The enzyme activity was determined by adding 10 mM of the substrate dihydroxyacetone, 0.167 mM of coenzyme NADH, 50 mM of KCl, 50 mM of NH4Cl, and the enzyme solution to a buffer to react at 30° C. for 3 min. followed by the measurement of a decrease in absorbance at […]. As buffers, 100 mM acetic acid buffers (pH4.0 to pH 6.0), 100 mM phosphate buffers (pH 6.0 to pH 8.0), and 100 mM Tris-HCl buffers (pH 8.0 to 9.0) were used to measure the activity at pH 4 to pH 9.

Q: For B1, which “optimum pH for reduction” value is on record?
A: 6.0

tested on: not listed separately; experiment: Optimum pH of RCG for oxidation (activity to oxidize glycerol); type: biochemical; settings: 0.1 M glycerol, 2 mM NAD+, 30° C., pH 6 to pH 11
Protocol: In order to study the optimum pH of RCG for oxidation, the activity to oxidize glycerol at pH6 to pH 11 was determined. The enzyme activity was determined by adding 0.1 M of the substrate glycerol, 2 mM of coenzyme NAD^+, 50 mM of KCl, 50 mM of NH4Cl, and the enzyme solution to a buffer to react at 30° C. for 3 min. followed by the measurement of an increase in absorbance at […]. As buffers, 100 mM phosphate buffers (pH 6.0 to pH 8.0), 100 mM Tris-HCl buffers (pH 8.0 to 9.0), and 100 mM carbonic acid buffers (pH 9.0 to pH 11.0) were used to measure the activity at pH 6 to pH 11.

Q: Which “optimum pH for oxidation” value does the source give for B1 here?
A: 9.0

tested on: not given; experiment: not given; type: biochemical; settings: not given
Protocol: Herein, the expression “having resistance to 1-chloro-3-hydroxyacetone” means that when 1-chloro-3-hydroxyacetone is added to a solution containing the polypeptide (the enzyme) of the present invention at the final concentration of 0.25% and the mixture is incubated at 30° C. for 20 hrs. followed by the determination of the activity to reduce 1-chloro-3-hydroxyacetone under the conditions described above, the resulting activity is 80% or more, preferably 85% or more, more preferably 90% or more of the activity determined without the pretreatment.
Likewise, the expression “having resistance to 3-chloro-1,2-propanediol” means that when the activity to reduce 1-chloro-3-hydroxyacetone is determined after incubation at 30° C. for 20 hrs. in the presence of 1% of 3-chloro-1,2-propanediol, the resulting activity is 80% or more, preferably 90% or more, more preferably 95% or more of the activity determined without the pretreatment.
In order to study the stability of RCG to 1-chloro-3-hydroxyacetone and to 3-chloro-1,2-propanediol, 1-chloro-3-hydroxyacetone was added at the final concentration of 0.25% to the enzyme solution and incubated at 30° C. followed by the measurement of the activity to reduce 1-chloro-3-hydroxyacetone by using the above enzyme solution. […]

Q: With B1 as the molecule, how does the “stability to 1-chloro-3-hydroxyacetone” value read?
A: very stable

Q: What about the “stability to 3-chloro-1,2-propanediol” value of the same molecule?
A: very stable
